Results on six molecules are retold here after US20260083750A1, “SMALL MOLECULE INHIBITORS OF KRAS PROTEINS” (MERCK SHARP & DOHME LLC, priority 2022, published 2026).

Usually IC50 stands for the point on the concentration scale where inhibition reaches its midpoint.

The target in one experiment is HRAS (Homo sapiens, UniProt P01112). Kind of experiment: SOS-catalyzed nucleotide exchange assay (Procedure A, TR-FRET). To be noted: 60 min preincubation, SOS + GTP, read-out: HRAS GNE IC50. The format is biochemical. An excerpt:
(§1) Procedure for SOS-Catalyzed Nucleotide Exchange Assay for KRAS-G12C/D/V, G13D, HRAS, and NRAS (Procedure A)
(§2) Recombinant KRAS-G12C protein used in this assay has an additional triple mutation (C51S/C80L/C118S), whereas KRAS-G12D/V, G13D, HRAS and NRAS are in context of their WT protein sequence background. Specifically, the SOS-catalyzed nucleotide exchange assay utilizes a preformed TR-FRET complex containing a specific biotinylated RAS protein (KRAS-G12C/V/D, G13D, HRAS, NRAS; described above) with Bodipy-GDP, and Terbium-streptavidin. Compounds are preincubated with this complex for 60 minutes. Subsequently, recombinant human SOS protein and unlabeled GTP are added to initiate the exchange reaction. Small molecule inhibitors stabilize the Bodipy-GDP complex whereas the untreated protein rapidly exchanges Bodipy-GDP for unlabeled GTP resulting in reduced TR-FRET signal.
(§3) To assemble the preformed TR-FRET complexes, each biotinylated RAS protein is diluted to 2 μM in an EDTA Buffer (20 mM HEPES pH 7.5, 50 mM sodium chloride, 10 mM EDTA, and 0.01% Tween) and incubated at room temperature for one hour. This mixture is then further diluted to 90 nM in an Assay Buffer (20 mM HEPES pH 7.5, 150 mM sodium chloride, 10 mM magnesium chloride, and 0.005% Tween) containing 15 nM of Terbium-Streptavidin (Invitrogen, catalog #PV3577) and 900 nM of Bodipy-GDP (Invitrogen, catalog #G22360) and incubated at room temperature for six hours. It should be noted that this preformed TR-FRET complex for each of the RAS protein were made ahead of time, aliquoted and stored at −80° C. until the day of the experiment.
(§4) Each test compound (10 mM stock in DMSO) is diluted in DMSO to make a final-10-point, 3-fold dilution and is acoustically dispensed into a 384-well assay plate (Corning, catalog #3820) using an Echo 550 (Labcyte). Each well of the assay plate receives 3 μL of a specific 3× RAS preformed TR-FRET complex and 3 μL of Assay Buffer and is incubated at room temperature for 60 minutes (preincubation time). Each well then receives 3 μL of 3× recombinant human SOS protein and GTP (Sigma, G8877) in Assay Buffer and is incubated at room temperature for 30 minutes (G13D), 60 minutes (G12C/D, H/NRAS) or 90 minutes for G12V. The final reaction in each well of […] consists of 3 mM GTP, specific Ras and SOS proteins in the following concentrations: KRAS-G12C/SOS=3 nM/40 nM, KRAS-G12D/SOS=1 nM/40 nM, KRAS-G12V/SOS=1.25 nM/160 nM, KRAS-G13D/SOS=1.25 nM/0 nM, HRAS & NRAS=1.25 nM/40 nM.
(§5) The time-resolved fluorescence resonance energy transfer (TR-FRET) signal is measured on an Envision (PerkinElmer) plate reader: Excitation filter=340 nm; emission1=495 nm; emission2=520 nm; dichroic mirror=D400/D505; delay time=[…]. The signal of each well is determined as the ratio of the emission at 520 nm to that at 495 nm. Percent effect of each well is determined after normalization to control wells containing DMSO (no effect) or a saturating concentration of inhibitor (max effect). The apparent effect as a function of compound concentration is fit to a four-parameter logistic equation.

The target of a further experiment is NRAS (Homo sapiens, UniProt P01111). Described as above. Format: biochemical. The settings on record: 60 min preincubation, SOS + GTP, read-out: NRAS GNE IC50.
Excerpt: as §1, §2, §3, §4, §5

Experiment [1] relates to PANC08.13 cells (homozygous KRAS-G12D activating mutation). Kind of experiment: Cellular phospho-ERK assay in G12D cell line. Format: cell-based. To be noted: Homo sapiens, PANC-08-13, 2 hours compound incubation, ratio of p-ERK vs. total ERK, read-out: PANC 0813 pERK IC50. Here is the method: Procedure for Cellular Phospho-ERK Assay in G12D and G12V Cell Lines
PANC08.13 cells (ATCC® CRL-2551™), containing homozygous KRAS-G12D activating mutation, were cultured in growth medium made of RPMI1640-GlutaMAX™—I (ThermoFisher Scientific 61870) containing 15% heat inactivated fetal bovine serum (ThermoFisher Scientific 10091148)). SW620 cells (ATCC® […]), containing homozygous KRAS-G12V activating mutation, were cultured in growth medium that contains RPMI 1640-GlutaMAX™—I (ThermoFisher Scientific 61870) containing 10% heat inactivated fetal bovine serum (ThermoFisher Scientific 10091148).
Cells for the assay were harvested in growth medium after TrypLE (ThermoFisher scientific 12604021) digestion and were seeded in a 384-well collagen coated cell culture plate (Corning 356702) at a density of 10,000-15,000 cells/20 uL/well, and incubated at 37° C., 5% CO2 overnight. The compound (with 10 mM stock concentration) dose-response titrations were prepared [30 μM final ERK detection assay concentration and 1:3 dilutions, 10-point dose response] and appropriate amounts (270 nL) of test compounds were dispensed in a 384-well intermediate plate using an Echo 550 liquid handler. 30 uL/well of RPMI medium 1640-GlutaMAX™—I was added to the intermediate plate and the contents of the intermediate plate (10 uL/well) were then transferred to the 384-well collagen coated cell culture plate, which was incubated at 37° C., 5% CO2 for 2 hours. After removal of medium from the collagen coated cell culture plate, cells were lysed in lysis buffer from Alpha SureFire® Ultra™ Multiplex p-ERK and total ERK assay kit (PerkinElmer MPSU-PTERK) containing Halt™ Protease and Phosphatase inhibitor cocktail (ThermoFisher Scientific 78446) at room temperature with constant shaking at 300 rpm for 30 minutes. The cell lysates were then transferred to an OptiPlate-384 plate (PerkinElmer 6005620), and the phosphorylation of ERK (p-ERK) and total ERK levels were detected by Alpha SureFire® Ultra™ Multiplex p-EEK kit and total ERK assay kit (PerkinElmer MPSU-PTERK) following the manufacturer's protocol. Assay plates were read on a EnVision Multimode Plate Reader (PerkinElmer), and the ratio of p-ERK vs. total ERK in each well was used as the final readout. Dose response curves were analyzed using a 4-parameter logistic model to calculate IC50 values using Spotfire software.

For another experiment, the target named is T1, KRAS-G12V (Homo sapiens, UniProt P01116, G12V).
T1 construct: N-terminal biotin-acceptor peptide […]
Kind of experiment: SOS-catalyzed nucleotide exchange assay (Procedure A, TR-FRET). The settings on record: 60 min preincubation, SOS + GTP, read-out: KRAS G12V GNE IC50. Format: biochemical.
Excerpt: as §1, §2, §3, §4
(§6) The time-resolved fluorescence resonance energy transfer (TR-FRET) signal is measured on an Envision (PerkinElmer) plate reader: Excitation filter=340 nm; emission1=495 nm; emission2=520 nm; dichroic mirror=D400/D505; delay time=[…]. The signal of each well is determined as the ratio of the emission at 520 nm to that at 495 nm. […] The apparent effect as a function of compound concentration is fit to a four-parameter logistic equation.
(TR-FRET usually uses a lanthanide donor and a delayed reading to cut background.)

Experiment [2] deals with T2, KRAS-G12C (C51S/C80L/C118S) (Homo sapiens, UniProt P01116, C118S/C51S/C80L/G12C).
T2 construct: N-terminal biotin-acceptor peptide […]
The description is as above. Format: biochemical. The settings on record: 60 min preincubation, SOS + GTP, read-out: KRAS G12C GNE IC50.
Excerpt: as §1, §2, §3, §4, §6

A further experiment concerns the target T3, KRAS-G13D (Homo sapiens, UniProt P01116, G13D).
T3 construct: N-terminal biotin-acceptor peptide […]
Described as above. Format: biochemical. The settings on record: 60 min preincubation, GTP, read-out: KRAS G13D GNE IC50.
Excerpt: as §1, §2, §3, §4, §6

The target of a further experiment is T4, KRAS-G12D (Homo sapiens, UniProt P01116, G12D).
T4 construct: N-terminal biotin-acceptor peptide […]
The experiment is described as above. The format is biochemical. The settings on record: 60 min preincubation, SOS + GTP, read-out: KRAS G12D GNE IC50.
Excerpt: as §1, §2, §3, §4, §6

T3 sequence (P01116 with tags, fused parts or gaps isoform P01116-2 G13D): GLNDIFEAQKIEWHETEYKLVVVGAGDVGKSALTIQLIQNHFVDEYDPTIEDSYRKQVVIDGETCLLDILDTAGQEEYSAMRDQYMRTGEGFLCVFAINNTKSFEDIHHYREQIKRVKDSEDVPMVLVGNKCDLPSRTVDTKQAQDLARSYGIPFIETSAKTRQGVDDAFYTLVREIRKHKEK
NRAS, sequence (P01111 with tags, fused parts or gaps): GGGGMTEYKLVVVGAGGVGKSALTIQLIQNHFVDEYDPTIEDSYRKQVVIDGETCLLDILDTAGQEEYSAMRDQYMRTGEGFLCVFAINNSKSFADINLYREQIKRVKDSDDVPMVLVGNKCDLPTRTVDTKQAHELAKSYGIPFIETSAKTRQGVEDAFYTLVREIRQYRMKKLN
T2 sequence (P01116 with tags, fused parts or gaps isoform P01116-2 G12C/C51S/C80L/C118S): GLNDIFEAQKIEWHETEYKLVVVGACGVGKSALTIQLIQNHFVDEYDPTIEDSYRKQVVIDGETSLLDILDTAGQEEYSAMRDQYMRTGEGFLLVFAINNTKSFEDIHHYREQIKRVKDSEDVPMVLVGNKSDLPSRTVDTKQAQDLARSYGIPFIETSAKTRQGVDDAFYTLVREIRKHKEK
T4 sequence (P01116 with tags, fused parts or gaps isoform P01116-2 G12D): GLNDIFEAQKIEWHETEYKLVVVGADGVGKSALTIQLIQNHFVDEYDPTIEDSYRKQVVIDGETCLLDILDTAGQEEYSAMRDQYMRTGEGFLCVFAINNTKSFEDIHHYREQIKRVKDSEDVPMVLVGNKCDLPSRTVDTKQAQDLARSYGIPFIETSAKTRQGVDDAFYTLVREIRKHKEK
HRAS, sequence (P01112 with tags, fused parts or gaps): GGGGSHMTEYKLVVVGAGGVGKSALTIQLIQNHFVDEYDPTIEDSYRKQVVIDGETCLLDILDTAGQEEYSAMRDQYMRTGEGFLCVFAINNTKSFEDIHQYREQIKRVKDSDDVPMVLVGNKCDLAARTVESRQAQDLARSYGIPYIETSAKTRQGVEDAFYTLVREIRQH
T1 sequence (P01116 with tags, fused parts or gaps isoform P01116-2 G12V): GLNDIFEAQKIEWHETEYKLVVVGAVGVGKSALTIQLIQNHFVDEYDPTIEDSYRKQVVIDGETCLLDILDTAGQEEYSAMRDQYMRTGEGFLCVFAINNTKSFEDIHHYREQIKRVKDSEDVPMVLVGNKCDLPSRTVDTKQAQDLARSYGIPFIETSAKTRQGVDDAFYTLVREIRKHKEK

As for `N#Cc1c(N)sc2c(F)ccc(-c3c(C(F)(F)F)cc4c(N5CCCOCC5)nc(OC[C@@]56CCCN5C[C@H](F)C6)nc4c3F)c12` (single isomer, unassigned) [Ex. 35], the IC50 on HRAS is 1170 nM; at NRAS, greater than 11100 nM; in experiment [1], 12.2 nM; at KRAS-G12V, 1.24 nM; in experiment [2], 5.51 nM; at KRAS-G13D, 1.13 nM. Moreover, the IC50 on KRAS-G12D was found to be 2.33 nM.
Turning to `N#Cc1c(N)sc2c(F)ccc(-c3c(Br)cc4c(N5C6COCC5C6)nc(OC[C@@]56CCCN5C[C@H](F)C6)nc4c3F)c12` [Ex. 36, 4-(4-(3-oxa-6-azabicyclo[3.1.1]heptan-6-yl)-6-bromo-8-fluoro-2-(((2R,7aS)-2-fluorotetrahydro-1H-pyrrolizin-7a(5H)-yl)methoxy)quinazolin-7-yl)-2-amino-7-fluorobenzo[b]thiophene-3-carbonitrile], the IC50 at HRAS is greater than 11100 nM; on NRAS, greater than 11100 nM; in experiment [1] it was 103 nM; in experiment [2], 37.1 nM; on KRAS-G13D, 20.2 nM; on KRAS-G12D, 9.34 nM.
As to `COCC1CCOCCN1c1nc(OC[C@@]23CCCN2C[C@H](F)C3)nc2c(F)c(-c3ccc(F)c4sc(N)c(C#N)c34)c(Cl)cc12` (stereo partly drawn) [compound 16, 2-amino-4-(6-chloro-8-fluoro-2-(((2R,7aS)-2-fluorotetrahydro-1H-pyrrolizin-7a(5H)-yl)methoxy)-4-(5-(methoxymethyl)-1,4-oxazepan-4-yl)quinazolin-7-yl)-7-fluorobenzo[b]thio-phene-3-carbonitrile], the IC50 at HRAS is greater than 11100 nM; at NRAS, greater than 11100 nM; in experiment [1], 274 nM; on KRAS-G12V it was 9.58 nM; in experiment [2], 14.7 nM; at KRAS-G13D it was 10.1 nM. Further, on KRAS-G12D, the IC50 worked out at 25.2 nM.
`N#Cc1c(N)sc2c(F)ccc(-c3c(Cl)cc4c(N5CCOCCC5C5CC5)nc(OC[C@@]56CCCN5C[C@H](F)C6)nc4c3F)c12` (stereo partly drawn) [compound 17, 2-amino-4-(6-chloro-4-(5-cyclopropyl-1,4-oxazepan-4-yl)-8-fluoro-2-(((2R,7aS)-2-fluorotetrahydro-1H-pyrrolizin-7a(5H)-yl)methoxy)quinazo-lin-7-yl)-7-fluorobenzo[b]thio-phene-3-carbonitrile]: the IC50 on HRAS is greater than 11100 nM; on NRAS, greater than 11100 nM; in experiment [1], 2260 nM; on KRAS-G12V, 44.1 nM; in experiment [2], 51.1 nM; at KRAS-G13D, 63.7 nM. Besides, the IC50 at KRAS-G12D came to 188 nM.
As to `C[C@H]1CCOCCN1c1nc(OC[C@]2(CN(C)C)CC2(F)F)nc2c(F)c(-c3ccc(F)c4sc(N)c(C#N)c34)ncc12` [compound 22, 2-amino-4-(2-(((R)-1-((dimethylamino)meth-yl)-2,2-difluorocyclopropyl)methoxy)-8-fluoro-4-((S)-5-methyl-1,4-oxazepan-4-yl)pyrido[4,3-d]pyrimidin-7-yl)-7-fluorobenzo[b]thiophene-3-carbonitrile], the IC50 is greater than 11100 nM at HRAS; greater than 11100 nM on NRAS; 413 nM in experiment [1]; 49.5 nM on KRAS-G12V; 22.6 nM in experiment [2]; 44.8 nM on KRAS-G13D. For the same molecule, on KRAS-G12D, the IC50 was 253 nM.
On to `CN1CCC[C@H]1COc1nc(N2CCCOCC2)c2cc(Br)c(-c3ccc(F)c4sc(N)c(C#N)c34)c(F)c2n1` [compound 38, 2-amino-4-(6-bromo-8-fluoro-2-(((S)-1-methylpyrrolidin-2-yl)methoxy)-4-(1,4-oxazepan-4-yl)quinazolin-7-yl)-7-fluorobenzo[b]thiophene-3-carbonitrile], for which the IC50 at HRAS was greater than 11100 nM; on NRAS, greater than 11100 nM; in experiment [1], 300 nM; on KRAS-G12V, 8.97 nM; in experiment [2], 30.5 nM; on KRAS-G13D it was 17.2 nM. Further, the IC50 at KRAS-G12D was determined as 47.1 nM.
